Legend:
Test in all cases: KINOMEscan competition binding
Conditions in all cases: compound 10.0 µM
[1] = tested on: PIK3CA (human), P42336 [C420R]
PRKCQ (human) = PRKCQ (human) (UniProt Q04759)
ERBB3 (human) = ERBB3 (human) (UniProt P21860)
NEK11 (human) = NEK11 (human) (UniProt Q8NG66)
BMPR1A (human) = BMPR1A (human) (UniProt P36894)
[2] = tested on: MET (human), P08581 [Y1235D]
[3] = tested on: FLT3 (human), P36888 [ITD]
ADCK3 (human) = ADCK3 (human) (UniProt Q8NI60)
[4] = molecular target: TYK2 JH2 pseudokinase (human) (UniProt P29597)
CDK17 (human) = CDK17 (human) (UniProt Q00537)
RIOK3 (human) = RIOK3 (human) (UniProt O14730)
Chain of RIOK3 (human) (O14730 whole entry, looked up): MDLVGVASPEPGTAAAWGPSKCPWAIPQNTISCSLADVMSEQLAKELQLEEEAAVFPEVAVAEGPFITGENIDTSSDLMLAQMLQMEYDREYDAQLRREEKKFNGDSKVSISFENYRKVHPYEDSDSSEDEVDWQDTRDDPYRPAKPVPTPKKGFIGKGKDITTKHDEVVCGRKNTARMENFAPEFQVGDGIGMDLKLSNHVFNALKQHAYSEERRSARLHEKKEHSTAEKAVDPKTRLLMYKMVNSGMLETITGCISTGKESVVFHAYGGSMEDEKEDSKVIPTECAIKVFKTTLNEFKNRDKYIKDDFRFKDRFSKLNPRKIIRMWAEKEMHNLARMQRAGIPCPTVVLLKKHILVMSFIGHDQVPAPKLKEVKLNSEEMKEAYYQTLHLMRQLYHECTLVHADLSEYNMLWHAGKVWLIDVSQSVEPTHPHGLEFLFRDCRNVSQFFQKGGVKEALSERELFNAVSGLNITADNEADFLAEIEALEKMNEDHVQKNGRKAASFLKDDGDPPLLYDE

CDK8 (human) = CDK8 (human) (UniProt P49336)
SRPK2 (human) = SRPK2 (human) (UniProt P78362)
EPHB2 (human) = EPHB2 (human) (UniProt P29323)
[5] = tested on: KIT (human), P10721 [D816V]
DDR2 (human) = DDR2 (human) (UniProt Q16832)
CSNK1G2 (human) = CSNK1G2 (human) (UniProt P78368)
EPHA2 (human) = EPHA2 (human) (UniProt P29317)
EGFR (human) = EGFR (human) (UniProt P00533)
RPS6KB1 (human) = RPS6KB1 (human) (UniProt P23443)
MAP2K2 (human) = MAP2K2 (human) (UniProt P36507)
PIM1 (human) = PIM1 (human) (UniProt P11309)
PAK7 (human) = PAK7 (human) (UniProt Q9P286)
SRPK1 (human) = SRPK1 (human) (UniProt Q96SB4)
RPS6KA4 KD1 (human) = RPS6KA4 KD1 (human) (UniProt O75676)
Chain of RPS6KA4 KD1 (human) (O75676 whole entry, looked up): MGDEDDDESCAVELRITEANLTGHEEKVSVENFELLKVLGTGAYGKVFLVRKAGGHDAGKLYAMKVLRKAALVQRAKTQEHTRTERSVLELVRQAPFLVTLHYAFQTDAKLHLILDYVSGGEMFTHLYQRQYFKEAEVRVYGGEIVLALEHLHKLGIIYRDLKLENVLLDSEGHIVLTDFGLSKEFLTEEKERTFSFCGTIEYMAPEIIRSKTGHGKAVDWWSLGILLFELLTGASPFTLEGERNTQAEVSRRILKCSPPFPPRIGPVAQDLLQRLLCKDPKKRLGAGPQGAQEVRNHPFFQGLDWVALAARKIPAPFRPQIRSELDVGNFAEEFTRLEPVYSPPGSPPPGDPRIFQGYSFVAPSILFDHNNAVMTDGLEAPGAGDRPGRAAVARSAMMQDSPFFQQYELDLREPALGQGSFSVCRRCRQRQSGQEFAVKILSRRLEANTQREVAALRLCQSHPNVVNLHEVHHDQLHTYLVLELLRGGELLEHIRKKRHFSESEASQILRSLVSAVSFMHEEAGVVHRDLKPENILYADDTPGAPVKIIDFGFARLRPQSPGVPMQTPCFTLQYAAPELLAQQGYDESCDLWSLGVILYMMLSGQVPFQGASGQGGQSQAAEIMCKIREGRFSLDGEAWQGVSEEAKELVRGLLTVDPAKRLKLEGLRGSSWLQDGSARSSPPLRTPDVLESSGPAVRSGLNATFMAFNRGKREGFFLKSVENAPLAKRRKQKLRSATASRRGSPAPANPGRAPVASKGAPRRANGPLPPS

PKN3 (M.tuberculosis) = PKN3 (M.tuberculosis) (UniProt Q6P5Z2)
PTK2B (human) = PTK2B (human) (UniProt Q14289)
Chain of PTK2B (human) (Q14289 whole entry, looked up): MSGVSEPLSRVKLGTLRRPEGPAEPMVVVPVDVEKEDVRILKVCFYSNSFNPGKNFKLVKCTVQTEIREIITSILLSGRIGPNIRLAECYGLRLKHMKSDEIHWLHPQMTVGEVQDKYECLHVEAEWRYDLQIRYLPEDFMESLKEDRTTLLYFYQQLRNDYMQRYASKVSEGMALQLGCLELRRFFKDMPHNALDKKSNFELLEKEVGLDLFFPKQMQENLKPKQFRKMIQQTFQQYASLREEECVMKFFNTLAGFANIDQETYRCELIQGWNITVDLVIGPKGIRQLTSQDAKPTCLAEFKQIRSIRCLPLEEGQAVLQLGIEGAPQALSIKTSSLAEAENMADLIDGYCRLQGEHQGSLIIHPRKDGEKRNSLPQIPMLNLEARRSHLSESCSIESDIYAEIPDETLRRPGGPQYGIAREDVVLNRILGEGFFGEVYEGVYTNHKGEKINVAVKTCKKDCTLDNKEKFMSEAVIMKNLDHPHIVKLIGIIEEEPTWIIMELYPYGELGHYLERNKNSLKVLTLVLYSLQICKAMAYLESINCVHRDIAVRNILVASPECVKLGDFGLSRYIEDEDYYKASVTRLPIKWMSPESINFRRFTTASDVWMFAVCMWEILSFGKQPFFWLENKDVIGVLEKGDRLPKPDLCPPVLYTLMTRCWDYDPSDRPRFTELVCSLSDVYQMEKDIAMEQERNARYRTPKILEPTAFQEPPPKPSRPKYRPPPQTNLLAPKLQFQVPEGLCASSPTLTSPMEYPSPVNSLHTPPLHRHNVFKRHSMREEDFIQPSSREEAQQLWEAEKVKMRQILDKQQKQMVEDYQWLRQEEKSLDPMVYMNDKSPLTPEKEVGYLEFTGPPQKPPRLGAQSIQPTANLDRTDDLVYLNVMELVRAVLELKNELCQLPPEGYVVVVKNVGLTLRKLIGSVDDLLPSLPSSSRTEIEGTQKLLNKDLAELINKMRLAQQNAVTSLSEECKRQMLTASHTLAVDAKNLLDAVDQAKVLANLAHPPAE

CDC42BPB (human) = CDC42BPB (human) (UniProt Q9Y5S2)
[6] = tested on: PIK3CA (human), P42336 [Q546K]
ALK (human) = ALK (human) (UniProt Q9UM73)
NTRK2 (human) = NTRK2 (human) (UniProt Q16620)
Chain of NTRK2 (human) (Q16620 whole entry, looked up): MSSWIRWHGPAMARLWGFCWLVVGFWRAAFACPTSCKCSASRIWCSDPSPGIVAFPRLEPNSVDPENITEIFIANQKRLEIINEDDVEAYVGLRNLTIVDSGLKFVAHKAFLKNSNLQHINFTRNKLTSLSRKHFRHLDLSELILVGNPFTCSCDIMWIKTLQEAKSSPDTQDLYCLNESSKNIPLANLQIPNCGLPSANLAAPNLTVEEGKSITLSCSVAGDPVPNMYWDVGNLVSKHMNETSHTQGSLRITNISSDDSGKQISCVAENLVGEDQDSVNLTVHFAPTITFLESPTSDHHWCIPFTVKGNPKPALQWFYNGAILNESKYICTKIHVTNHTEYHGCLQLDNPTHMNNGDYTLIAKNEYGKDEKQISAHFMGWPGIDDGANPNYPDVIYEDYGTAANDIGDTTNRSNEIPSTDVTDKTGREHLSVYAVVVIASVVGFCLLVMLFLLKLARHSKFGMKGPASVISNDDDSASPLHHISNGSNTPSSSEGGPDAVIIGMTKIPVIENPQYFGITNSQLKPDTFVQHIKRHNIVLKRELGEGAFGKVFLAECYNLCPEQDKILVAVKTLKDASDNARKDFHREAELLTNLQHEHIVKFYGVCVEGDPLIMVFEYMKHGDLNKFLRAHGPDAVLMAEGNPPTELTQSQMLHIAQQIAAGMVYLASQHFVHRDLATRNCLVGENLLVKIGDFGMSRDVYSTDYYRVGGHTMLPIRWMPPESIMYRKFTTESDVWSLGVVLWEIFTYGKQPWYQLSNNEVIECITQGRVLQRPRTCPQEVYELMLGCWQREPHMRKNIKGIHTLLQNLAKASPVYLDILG

MAP3K9 (human) = MAP3K9 (human) (UniProt P80192)
Chain of MAP3K9 (human) (P80192 whole entry, looked up): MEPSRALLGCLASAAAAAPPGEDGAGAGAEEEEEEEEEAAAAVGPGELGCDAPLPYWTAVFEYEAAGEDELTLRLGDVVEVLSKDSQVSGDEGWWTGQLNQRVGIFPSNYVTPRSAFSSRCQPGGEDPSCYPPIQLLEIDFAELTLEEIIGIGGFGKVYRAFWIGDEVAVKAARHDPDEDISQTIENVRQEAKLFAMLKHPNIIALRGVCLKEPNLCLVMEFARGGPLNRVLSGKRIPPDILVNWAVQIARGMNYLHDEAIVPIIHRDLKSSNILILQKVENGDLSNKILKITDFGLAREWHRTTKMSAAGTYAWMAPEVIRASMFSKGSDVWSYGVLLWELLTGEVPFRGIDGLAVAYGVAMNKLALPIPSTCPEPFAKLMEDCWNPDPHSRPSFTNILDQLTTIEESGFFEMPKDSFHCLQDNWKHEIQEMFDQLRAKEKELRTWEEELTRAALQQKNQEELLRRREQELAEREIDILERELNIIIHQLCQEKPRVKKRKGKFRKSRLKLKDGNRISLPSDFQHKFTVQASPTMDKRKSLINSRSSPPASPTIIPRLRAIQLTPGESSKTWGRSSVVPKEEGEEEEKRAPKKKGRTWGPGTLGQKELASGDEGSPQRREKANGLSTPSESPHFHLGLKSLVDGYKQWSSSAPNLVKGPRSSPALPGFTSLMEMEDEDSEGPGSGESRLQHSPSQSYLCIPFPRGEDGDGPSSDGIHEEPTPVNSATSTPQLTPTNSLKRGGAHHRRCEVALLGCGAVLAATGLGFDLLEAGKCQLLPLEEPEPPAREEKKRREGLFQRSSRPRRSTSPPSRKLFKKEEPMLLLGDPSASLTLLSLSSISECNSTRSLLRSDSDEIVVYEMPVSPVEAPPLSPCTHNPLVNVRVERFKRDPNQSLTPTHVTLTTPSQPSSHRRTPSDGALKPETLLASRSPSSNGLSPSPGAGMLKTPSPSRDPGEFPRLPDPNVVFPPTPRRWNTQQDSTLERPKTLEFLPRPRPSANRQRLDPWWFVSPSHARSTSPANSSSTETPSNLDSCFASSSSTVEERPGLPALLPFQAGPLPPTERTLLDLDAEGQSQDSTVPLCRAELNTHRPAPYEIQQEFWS

PLK3 (human) = PLK3 (human) (UniProt Q9H4B4)
[7] = tested on: EGFR (human), P00533 [747-751 del / S ins]
MAP3K1 (human) = MAP3K1 (human) (UniProt Q13233)
FER (human) = FER (human) (UniProt P16591)
CDK13 (human) = CDK13 (human) (UniProt Q14004)
CPK1 (P.falciparum) = tested on: CPK1 (P.falciparum)
DDR1 (human) = DDR1 (human) (UniProt Q08345)
STK32A (human) = STK32A (human) (UniProt Q8WU08)
CASK (human) = CASK (human) (UniProt O14936)

Chain of ADCK3 (human) (Q8NI60 whole entry, looked up): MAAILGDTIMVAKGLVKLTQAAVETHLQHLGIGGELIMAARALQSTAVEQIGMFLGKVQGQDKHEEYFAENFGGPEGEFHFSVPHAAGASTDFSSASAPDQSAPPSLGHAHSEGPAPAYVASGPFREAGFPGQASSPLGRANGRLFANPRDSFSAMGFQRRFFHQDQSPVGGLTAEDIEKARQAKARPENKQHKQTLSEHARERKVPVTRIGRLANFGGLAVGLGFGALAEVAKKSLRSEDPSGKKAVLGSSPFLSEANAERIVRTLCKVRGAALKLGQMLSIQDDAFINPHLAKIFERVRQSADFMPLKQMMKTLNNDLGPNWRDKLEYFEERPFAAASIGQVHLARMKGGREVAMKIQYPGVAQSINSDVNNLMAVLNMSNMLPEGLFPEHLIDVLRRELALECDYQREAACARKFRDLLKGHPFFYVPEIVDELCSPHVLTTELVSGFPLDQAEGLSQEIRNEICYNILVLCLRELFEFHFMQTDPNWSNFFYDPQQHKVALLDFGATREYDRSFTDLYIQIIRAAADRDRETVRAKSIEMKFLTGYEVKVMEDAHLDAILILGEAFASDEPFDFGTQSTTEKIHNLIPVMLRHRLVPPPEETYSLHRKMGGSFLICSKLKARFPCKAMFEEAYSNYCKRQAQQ

COc1ccc(-c2ccc3c(N4CCOCC4)nc(N4C[C@@H](C)O[C@@H](C)C4)nc3n2)cc1CO
kinase still bound, per cent of control [1]: 2.3% | kinase still bound, per cent of control (PRKCQ (human)): 100% | kinase still bound, per cent of control (ERBB3 (human)): 85% | kinase still bound, per cent of control (NEK11 (human)): 72% | kinase still bound, per cent of control (BMPR1A (human)): 70% | kinase still bound, per cent of control [2]: 100% | kinase still bound, per cent of control [3]: 100% | kinase still bound, per cent of control (ADCK3 (human)): 87% | kinase still bound, per cent of control [4]: 86% | per cent of control (CDK17 (human)): 100% | kinase still bound, per cent of control (RIOK3 (human)): 100% | per cent of control (CDK8 (human)): 100% | kinase still bound, per cent of control (SRPK2 (human)): 100% | kinase still bound, per cent of control (EPHB2 (human)): 100% | kinase still bound, per cent of control [5]: 94% | kinase still bound, per cent of control (DDR2 (human)): 100% | kinase still bound, per cent of control (CSNK1G2 (human)): 100% | kinase still bound, per cent of control (EPHA2 (human)): 100% | kinase still bound, per cent of control (EGFR (human)): 100% | kinase still bound, per cent of control (RPS6KB1 (human)): 100% | kinase still bound, per cent of control (MAP2K2 (human)): 92% | kinase still bound, per cent of control (PIM1 (human)): 94% | kinase still bound, per cent of control (PAK7 (human)): 76% | kinase still bound, per cent of control (SRPK1 (human)): 100% | kinase still bound, per cent of control (RPS6KA4 KD1 (human)): 96% | kinase still bound, per cent of control (PKN3 (M.tuberculosis)): 100% | kinase still bound, per cent of control (PTK2B (human)): 84% | kinase still bound, per cent of control (CDC42BPB (human)): 81% | kinase still bound, per cent of control [6]: 2.8% | kinase still bound, per cent of control (ALK (human)): 100% | kinase still bound, per cent of control (NTRK2 (human)): 73% | kinase still bound, per cent of control (MAP3K9 (human)): 88% | kinase still bound, per cent of control (PLK3 (human)): 92% | kinase still bound, per cent of control [7]: 82% | kinase still bound, per cent of control (MAP3K1 (human)): 100% | kinase still bound, per cent of control (FER (human)): 100% | per cent of control (CDK13 (human)): 100% | kinase still bound, per cent of control (CPK1 (P.falciparum)): 100% | kinase still bound, per cent of control (DDR1 (human)): 85% | kinase still bound, per cent of control (STK32A (human)): 67% | kinase still bound, per cent of control (CASK (human)): 100%

Source: the kinase profiling compilation of Christmann-Franck et al. (2016)
